Assays:
[1] = Acute toxicity (LD50) of AX-2, single injection, 14 days observation, Behrens-Korber's method; set-up: species or system Mice (ddy strain); settings: mouse, in vivo, male ddy mice
Text: The acute toxicity and anti-tumour activity of AX-2 are as follows. I. Acute toxicity (LD50) of AX-2:
Mice (ddy strain; male; weight 20±2 g; each group consisting of 5 mice) were used as test animals. On each occasion, the active substance of this invention was once administered to the animal by injection (ip. or iv.).

Sarcoma 180 solid tumour = experiment: Effect on Sarcoma 180 solid tumour (volume ratio T/C, iv.); type: in vivo, ddy male mouse; settings: for T/C (tumour volume ratio): 7 days after administration; for Survials (7 days): Sarcoma 180 mice
Experimental: (1) Effect on Sarcoma 180 solid tumour:
(§1) On each occasion, 5×10^6 cells of Sarcoma 180 solid tumour were implanted into the abdominal cavity of a ddy male mouse. 7 days after this, the cells were collected from the ascites.The cells were washed once with a sterilized physiological solution of sodium chloride and suspended in a sterilized physiological solution of sodium chloride at a concentration of 5×10^7 cells/ml, of which 0.1 ml was implanted under the skin at the right artpit of a ddy male mouse having a weight of 20±2 g. 24 hours after this, the active substance was administered into the vein at the tail of each mouse of a group consisting of 5 mice. In order to investigate the anti-tumour activity, 7 days after administration of AX-2, the major axis (a) and minor axis (b) of the tumour were measured, from which the volume of the tumour was calculated as a X b^2 /2. The effect of AX-2 is expressed by T/C which denotes the volume ratio of T [mice administered with AX-2 ] to C (untreated group). Table 1 indicates the effect of AX-2 agsinst Sarcoma 180 solid tumour by injection (iv.).
A T/C of 0.25 was obtained from the group, to which each 15 mg/kg of AX-2 had been administered. In this table, ED50 denotes a dose capable of reducing the volume of the tumour to 50% of the corresponding volume of the control group. Such volumes were calculated by plotting a relation between the dose and T/C on a logarithmic graph which indiates T/C on the ordinate and the dose on the abscissa, and calculating the dose and anti-tumour activity as a straight line by the method of least squares. The dose corresponding to T/C of 0.5 is defined as ED50.

Peripherical leucocytes = Peripherical leucocytes count (WBC) in Sarcoma 180 bearing mice; type: in vivo, ddy male mouse; settings: blood 4 days after tumour implantation
Experimental: as §1
The peripherical leucocytes count (WBC) was measured by using a micro cell counter in the following manner. Sarcoma 180 solid tumour was implanted by injection (ip.). 4 days after this, blood was collected from the eye ground, of which 20 μl was added to 9.98 ml of Cellkit-7 (a reagent commercially available from Toyo Rika K.K., Japan) to dissolve the red cells. In this solution a drop of saponin was dispersed, followed by measuring with a micro cell counter.

Melanoma B16 tumour = experiment: Effects on Melanoma B16 tumour (survival, ip.); type: in vivo, C57 BL/6 male mouse
Experimental: (2) Effects on Melanoma B16 tumour:
Tumour cells were collected from Melanoma B16 tumour cells lined in the abdominal cavity of a C57 BL/6 male mouse and suspended in a sterilized physiological solution of sodium chloride at a concentration of 2.5×10^7 cell/ml, of which 0.2 ml was implanted into the abdominal cavity of each mouse. The anti-tumour activity was indicated by T/C % where T and C respectively indicate the average survival days of treated and untreated groups.
As apparent from this table, it was noted that by administration of AX-2 in an amount of 6 mg/kg, the T/C value was more than 277% and 1/5 of the mice were alive 60 days after the beginning of the administration. The therapeutic index [a dose showing a maximum therapeutic effect/a dose showing a T/C of 130%] was 193.

Solubility = type: physicochemical

## COC1=C(C)C(=O)C2=C(C1=O)C(COC(N)=O)C1(OC)NCC3C1N23 (stereo not shown) [AX-2]
[1]; ip.
  LD50 at 336 h: 7.8 mg/kg
[1]; iv.
  LD50 at 336 h: 27 mg/kg
Sarcoma 180 solid tumour; 1.88 mg/kg
  T/C (tumour volume ratio): 0.77
  Survials (7 days): 4/4
Sarcoma 180 solid tumour; 3.75 mg/kg
  T/C (tumour volume ratio): 0.64
  Survials (7 days): 4/4
Sarcoma 180 solid tumour; 7.5 mg/kg
  T/C (tumour volume ratio): 0.42
  Survials (7 days): 4/4
Sarcoma 180 solid tumour; 10 mg/kg
  T/C (tumour volume ratio): 0.34
  Survials (7 days): 4/4
Sarcoma 180 solid tumour; 15 mg/kg
  T/C (tumour volume ratio): 0.25
  Survials (7 days): 4/4
Sarcoma 180 solid tumour; 30 mg/kg
  T/C (tumour volume ratio): 0.05
  Survials (7 days): 3/4
Sarcoma 180 solid tumour; 7.5 to 15 mg/kg
  effect (dose dependence): the effect increased according to the increased dose
Sarcoma 180 solid tumour; Mus musculus, Sarcoma-180, 168 h, least squares from dose vs T/C log plot, read-out: ED50 (dose reducing tumour volume to 50% of control, T/C 0.5)
  ED50: 5.7 mg/kg
Peripherical leucocytes; 1.88 mg/kg
  Peripherical leucocytes count (WBC) ± SD/mm^3: 7730 ± 49 /mm^3
Peripherical leucocytes; 3.75 mg/kg
  Peripherical leucocytes count (WBC) ± SD/mm^3: 6730 ± 115 /mm^3
Peripherical leucocytes; 7.5 mg/kg
  Peripherical leucocytes count (WBC) ± SD/mm^3: 4100 ± 55 /mm^3
Peripherical leucocytes; 10 mg/kg
  Peripherical leucocytes count (WBC) ± SD/mm^3: 2800 ± 80 /mm^3
Peripherical leucocytes; 15 mg/kg
  Peripherical leucocytes count (WBC) ± SD/mm^3: 2950 ± 42 /mm^3
Peripherical leucocytes; 30 mg/kg
  Peripherical leucocytes count (WBC) ± SD/mm^3: 2300 ± 60 /mm^3
Melanoma B16 tumour
  therapeutic index [a dose showing a maximum therapeutic effect/a dose showing a T/C of 130%]: 193
Melanoma B16 tumour; 0.031 mg/kg
  Average survival days (days ± SD): 18.4 ± 1.5 days
  Survived after 60 days after implantation: 0/5
  T/C (average survival days treated/untreated): 144%
Melanoma B16 tumour; 0.063 mg/kg
  Average survival days (days ± SD): 13.0 ± 1.7 days
  Survived after 60 days after implantation: 0/5
  T/C (average survival days treated/untreated): 140%
Melanoma B16 tumour; 0.125 mg/kg
  Average survival days (days ± SD): 19.4 ± 2.0 days
  Survived after 60 days after implantation: 0/5
  T/C (average survival days treated/untreated): 152%
Melanoma B16 tumour; 0.25 mg/kg
  Average survival days (days ± SD): 17.8 ± 1.1 days
  Survived after 60 days after implantation: 0/5
  T/C (average survival days treated/untreated): 140%
Melanoma B16 tumour; 0.5 mg/kg
  Average survival days (days ± SD): 21.0 ± 2.8 days
  Survived after 60 days after implantation: 0/5
  T/C (average survival days treated/untreated): 164%
Melanoma B16 tumour; 1.0 mg/kg
  Average survival days (days ± SD): 24.0 ± 3.5 days
  Survived after 60 days after implantation: 0/5
  T/C (average survival days treated/untreated): 189%
Melanoma B16 tumour; 2.0 mg/kg
  Average survival days (days ± SD): 27.4 ± 5.4 days
  Survived after 60 days after implantation: 0/5
  T/C (average survival days treated/untreated): 214%
Melanoma B16 tumour; 4.0 mg/kg
  Average survival days (days ± SD): 33.4 ± 9.2 days
  Survived after 60 days after implantation: 0/5
  T/C (average survival days treated/untreated): 261%
Melanoma B16 tumour; 6.0 mg/kg
  Average survival days (days ± SD): 35.4 ± 5.3 days
  Survived after 60 days after implantation: 1/5
Melanoma B16 tumour; 8.0 mg/kg
  Average survival days (days ± SD): 10.6 ± 4.2 days
  Survived after 60 days after implantation: 0/5
  T/C (average survival days treated/untreated): 93%
Melanoma B16 tumour; 12.0 mg/kg
  Average survival days (days ± SD): 4.8 ± 1.6 days
  Survived after 60 days after implantation: 0/5
  T/C (average survival days treated/untreated): 26%
Solubility; ethyl acetate, chloroform, acetone, methanol and ethanol
  Solubility: Soluble
Solubility; petroleum ether and n-hexane
  Solubility: Insoluble
Solubility; water
  Solubility: Slightly soluble

Reference: patent publication US4563462A, “Substance AX-2, a process for producing the same and an antitumor composition containing the same” (Kyowa Hakko Kogyo Kabushiki, priority 1982, dated 1986)
